In patent US10758534B2 (Vertex Pharmaceuticals Incorporated, priority 2014, dated 2020):

Biological target: T1, F508del (Homo sapiens, UniProt P13569, DEL508-508)
T1 construct: expressed in transfected cells
Test: Protocol 1: membrane potential optical assay (FLIPR III, voltage sensing dye), identification of potentiator compounds
Type: cell-based
Details: Table 3, compounds of Table 1
Outline: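 Read-out: change in voltage-sensing dye fluorescence (FLIPR III) as a measure of F508del conductance. Temperature-corrected (27° C, 24 hrs) NIH 3T3 cells expressing F508del are pretreated with potentiators, dye-loaded, then stimulated with forskolin under a chloride ion gradient using chloride-free gluconate bath.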

T1 sequence (P13569 with tags, fused parts or gaps DEL508-508): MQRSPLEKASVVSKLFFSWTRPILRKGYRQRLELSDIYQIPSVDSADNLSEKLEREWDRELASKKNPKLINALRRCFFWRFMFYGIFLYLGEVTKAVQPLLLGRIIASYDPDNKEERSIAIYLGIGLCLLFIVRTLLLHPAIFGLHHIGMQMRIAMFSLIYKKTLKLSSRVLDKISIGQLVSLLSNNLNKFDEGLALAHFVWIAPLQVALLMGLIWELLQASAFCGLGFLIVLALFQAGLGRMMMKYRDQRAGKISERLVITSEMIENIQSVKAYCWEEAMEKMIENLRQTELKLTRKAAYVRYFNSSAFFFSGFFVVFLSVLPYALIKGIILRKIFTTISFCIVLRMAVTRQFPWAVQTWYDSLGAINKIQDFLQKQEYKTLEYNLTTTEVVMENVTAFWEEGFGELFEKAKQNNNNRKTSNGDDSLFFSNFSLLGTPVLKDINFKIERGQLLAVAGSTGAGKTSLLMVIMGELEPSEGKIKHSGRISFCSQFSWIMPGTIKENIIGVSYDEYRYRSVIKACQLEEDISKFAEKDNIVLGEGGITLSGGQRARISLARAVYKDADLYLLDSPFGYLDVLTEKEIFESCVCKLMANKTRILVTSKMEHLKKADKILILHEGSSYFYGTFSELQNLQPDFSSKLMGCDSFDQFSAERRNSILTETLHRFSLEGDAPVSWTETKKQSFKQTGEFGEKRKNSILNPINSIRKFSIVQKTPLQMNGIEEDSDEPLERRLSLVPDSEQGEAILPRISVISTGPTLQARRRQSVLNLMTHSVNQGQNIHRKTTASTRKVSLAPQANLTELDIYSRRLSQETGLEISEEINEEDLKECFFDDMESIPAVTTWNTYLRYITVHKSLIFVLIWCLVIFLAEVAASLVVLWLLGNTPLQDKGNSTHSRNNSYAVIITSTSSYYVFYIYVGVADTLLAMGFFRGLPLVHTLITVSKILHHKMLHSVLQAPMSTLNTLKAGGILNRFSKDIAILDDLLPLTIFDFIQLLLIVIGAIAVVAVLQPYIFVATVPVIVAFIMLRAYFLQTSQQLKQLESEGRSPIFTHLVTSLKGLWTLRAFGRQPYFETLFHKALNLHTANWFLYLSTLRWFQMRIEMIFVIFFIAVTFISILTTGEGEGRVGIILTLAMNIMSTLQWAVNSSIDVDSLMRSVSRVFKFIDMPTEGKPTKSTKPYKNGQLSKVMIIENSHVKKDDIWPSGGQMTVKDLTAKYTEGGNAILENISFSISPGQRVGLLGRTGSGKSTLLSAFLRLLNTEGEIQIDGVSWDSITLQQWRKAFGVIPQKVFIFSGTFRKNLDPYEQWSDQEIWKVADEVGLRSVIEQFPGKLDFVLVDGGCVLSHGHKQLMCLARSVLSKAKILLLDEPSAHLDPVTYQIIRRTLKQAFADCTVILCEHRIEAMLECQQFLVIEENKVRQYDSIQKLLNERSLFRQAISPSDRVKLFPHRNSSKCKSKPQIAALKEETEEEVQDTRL

| Structure (SMILES) | EC30 |
| --- | --- |
| CC(C)COc1cc(F)cc(-c2ccc(C(=O)NS(=O)(=O)c3cccc(N)n3)c(OC3CC(OCc4ccccc4)C3)n2)c1 (stereo not shown) [Compound 1559, N-[(6-amino-2-pyridyl)sulfonyl]-2-(3-benzyloxycyclobutoxy)-6-(3-fluoro-5-isobutoxy-phenyl)pyridine-3-carboxamide] | +++ (“+++” means <3 uM) |
| CC(C)COc1cc(F)cc(-c2ccc(C(=O)NS(=O)(=O)N3CCC(S(C)(=O)=O)C3)c(N3C[C@@H](C)CC3(C)C)n2)c1 (stereo partly drawn) [Compound 1560, 6-(3-fluoro-5-isobutoxy-phenyl)-N-(3-methylsulfonylpyrrolidin-1-yl)sulfonyl-2-[(4S)-2,2,4-trimethylpyrrolidin-1-yl]pyridine-3-carboxamide] | +++ (“+++” means <3 uM) |
| CCOc1cccc2c1CN(Cc1c(C)cc(C)cc1C)C2(C)C(=O)NS(=O)(=O)c1ccc(C(C)C)c(N)c1 (stereo not shown) [Compound 1562, N-(3-amino-4-isopropyl-phenyl)sulfonyl-4-ethoxy-1-methyl-2-[(2,4,6-trimethylphenyl)methyl]isoindoline-1-carboxamide] | +++ (“+++” means <3 uM) |
| CC(C)COc1cc(F)cc(-c2ccc(C(=O)NS(=O)(=O)c3ccc(O)c(N)n3)c(N3C[C@@H](C)CC3(C)C)n2)c1 [Compound 1563, N-[(6-amino-5-hydroxy-2-pyridyl)sulfonyl]-6-(3-fluoro-5-isobutoxy-phenyl)-2-[(4S)-2,2,4-trimethylpyrrolidin-1-yl]pyridine-3-carboxamide] | +++ (“+++” means <3 uM) |
| CCOc1cccc2c1CN(Cc1ccc(Cl)nc1)C2(C)C(=O)NS(=O)(=O)c1cccc(N)n1 (stereo not shown) [Compound 1565, N-[(6-amino-2-pyridyl)sulfonyl]-2-[(6-chloro-3-pyridyl)methyl]-4-ethoxy-1-methyl-isoindoline-1-carboxamide] | + (“+” means greater than 10 uM) |
| Cc1cc(C)c(Cn2nc(C(C)(C)C)cc2C(=O)NS(=O)(=O)c2cn(C)cn2)c(C)c1 [Compound 1568, 5-tert-butyl-N-(1-methylimidazol-4-yl)sulfonyl-2-[(2,4,6-trimethylphenyl)methyl]pyrazole-3-carboxamide] | +++ (“+++” means <3 uM) |
| CC(C)COc1cc(F)cc(-c2ccc(C(=O)NS(=O)(=O)c3cccc(N)n3)c(OCC3CCCCO3)n2)c1 (stereo not shown) [Compound 1570, N-[(6-amino-2-pyridyl)sulfonyl]-6-(3-fluoro-5-isobutoxy-phenyl)-2-(tetrahydropyran-2-ylmethoxy)pyridine-3-carboxamide] | +++ (“+++” means <3 uM) |
| Cc1cc(C)c2c(c1)CCN2c1nc(-c2cc(F)cc(OCC(C)C)c2)ccc1C(=O)NS(=O)(=O)c1cccc(N)n1 [Compound 1572, N-[(6-amino-2-pyridyl)sulfonyl]-2-(5,7-dimethylindolin-1-yl)-6-(3-fluoro-5-isobutoxy-phenyl)pyridine-3-carboxamide] | +++ (“+++” means <3 uM) |
| Cc1ccnc(C)c1Oc1nc(-c2cc(F)cc(OCC(C)C)c2)ccc1C(=O)NS(=O)(=O)c1cccc(N)n1 [Compound 1574, N-[(6-amino-2-pyridyl)sulfonyl]-2-[(2,4-dimethyl-3-pyridyl)oxy]-6-(3-fluoro-5-isobutoxy-phenyl)pyridine-3-carboxamide] | ++ (“++” means between 3 uM and 10 uM) |
| CCOc1cccc2c1CN(Cc1ccc(C(C)C)cc1)C2(C)C(=O)NS(=O)(=O)c1cccc(N)n1 (stereo not shown) [Compound 1576, N-[(6-amino-2-pyridyl)sulfonyl]-4-ethoxy-2-[(4-isopropylphenyl)methyl]-1-methyl-isoindoline-1-carboxamide] | +++ (“+++” means <3 uM) |
| CC(C)COc1cc(F)cc(-c2ccc(C(=O)NS(=O)(=O)c3cccc(N)n3)c(OCCC3CCOCC3)n2)c1 [Compound 1579, N-[(6-amino-2-pyridyl)sulfonyl]-6-(3-fluoro-5-isobutoxy-phenyl)-2-(2-tetrahydropyran-4-ylethoxy)pyridine-3-carboxamide] | +++ (“+++” means <3 uM) |
| CC(C)COc1cc(F)cc(-c2ccc(C(=O)NS(=O)(=O)c3cccc(N)n3)c(OC3CCC3)n2)c1 [Compound 1580, N-[(6-amino-2-pyridyl)sulfonyl]-2-(cyclobutoxy)-6-(3-fluoro-5-isobutoxy-phenyl)pyridine-3-carboxamide] | +++ (“+++” means <3 uM) |
| C[C@@H]1CN(c2nc(-c3cc(F)cc(OCC(C)(C)O)c3)ccc2C(=O)NS(=O)(=O)c2ccccc2)C(C)(C)C1 [Compound 1581, N-(benzenesulfonyl)-6-[3-fluoro-5-(2-hydroxy-2-methyl-propoxy)phenyl]-2-[(4S)-2,2,4-trimethylpyrrolidin-1-yl]pyridine-3-carboxamide] | +++ (“+++” means <3 uM) |
| CCOc1cccc2c1CN(Cc1c(C)cc(C)cc1C)[C@@]2(C)C(=O)NS(=O)(=O)c1cccc(N)n1 [Compound 1582, (1R)—N-[(6-amino-2-pyridyl)sulfonyl]-4-ethoxy-1-methyl-2-[(2,4,6-trimethylphenyl)methyl]isoindoline-1-carboxamide] | +++ (“+++” means <3 uM) |
| CCOc1cccc2c1CN(Cc1ccc(F)cc1)C2(C)C(=O)NS(=O)(=O)c1cccc(F)n1 (stereo not shown) [Compound 1583, 4-ethoxy-2-[(4-fluorophenyl)methyl]-N-[(6-fluoro-2-pyridyl)sulfonyl]-1-methyl-isoindoline-1-carboxamide] | ++ (“++” means between 3 uM and 10 uM) |
| CCOc1cccc2c1CN(Cc1c(C)cc(C)cc1C)C2(C)C(=O)NS(=O)(=O)c1ccc(CC)c(N)c1 (stereo not shown) [Compound 1584, N-(3-amino-4-ethyl-phenyl)sulfonyl-4-ethoxy-1-methyl-2-[(2,4,6-trimethylphenyl)methyl]isoindoline-1-carboxamide] | +++ (“+++” means <3 uM) |
| Cc1cc(C)c(Cn2nc(C(C)(C)C)cc2C(=O)NS(=O)(=O)c2ccncc2)c(C)c1 [Compound 1585, 5-tert-butyl-N-(4-pyridylsulfonyl)-2-[7(2,4,6-trimethylphenyl)methyl]pyrazole-3-carboxamide] | +++ (“+++” means <3 uM) |
| CC(=O)NC1CCCN(S(=O)(=O)NC(=O)c2ccc(-c3cc(F)cc(OCC(C)C)c3)nc2N2CC(C)CC2(C)C)C1 (stereo not shown) [Compound 1586, N-[(3-acetamido-1-piperidyl)sulfonyl]-6-(3-fluoro-5-isobutoxy-phenyl)-2-(2,2,4-trimethylpyrrolidin-1-yl)pyridine-3-carboxamide] | +++ (“+++” means <3 uM) |
| CCOc1cccc2c1CN(Cc1c(C)cc(C)cc1C)C2(C)C(=O)NS(=O)(=O)c1ccc(Cl)c(N)c1 (stereo not shown) [Compound 1587, N-(3-amino-4-chloro-phenyl)sulfonyl-4-ethoxy-1-methyl-2-[(2,4,6-trimethylphenyl)methyl]isoindoline-1-carboxamide] | +++ (“+++” means <3 uM) |

Results, then the compound that gave them:

| EC30 | Structure (SMILES) |
| --- | --- |
| +++ (“+++” means <3 uM) | CC(C)=Cc1cc(C(=O)NS(=O)(=O)c2cccc(N)n2)c(N2CC(C)CC2(C)C)nc1C(C)(C)C (stereo not shown) [Compound 1561, N-[(6-amino-2-pyridyl)sulfonyl]-6-tert-butyl-5-(2-methylprop-1-enyl)-2-(2,2,4-trimethylpyrrolidin-1-yl)pyridine-3-carboxamide] |
| ++ (“++” means between 3 uM and 10 uM) | C[C@@H]1CN(c2nc(C#N)ccc2C(=O)NS(=O)(=O)c2cccc(N)n2)C(C)(C)C1 [Compound 1564, N-[(6-amino-2-pyridyl)sulfonyl]-6-cyano-2-[(4S)-2,2,4-trimethylpyrrolidin-1-yl]pyridine-3-carboxamide] |
| +++ (“+++” means <3 uM) | C[C@@H]1CN(c2nc(C(C)(C)C)c(/C=C/c3ccc(C(F)(F)F)cc3)cc2C(=O)NS(=O)(=O)c2cccc(N)n2)C(C)(C)C1 [Compound 1566, N-[(6-amino-2-pyridyl)sulfonyl]-6-tert-butyl-5-[(E)-2-[4-(trifluoromethyl)phenyl]vinyl]-2-[(4S)-2,2,4-trimethylpyrrolidin-1-yl]pyridine-3-carboxamide] |
| +++ (“+++” means <3 uM) | CC(CO)COc1cc(F)cc(-c2ccc(C(=O)NS(=O)(=O)c3cccc(N)n3)c(N3C[C@@H](C)CC3(C)C)n2)c1 (stereo partly drawn) [Compound 1567, N-[(6-amino-2-pyridyl)sulfonyl]-6-[3-fluoro-5-(3-hydroxy-2-methyl-propoxy)phenyl]-2-[(4S)-2,2,4-trimethylpyrrolidin-1-yl]pyridine-3-carboxamide] |
| +++ (“+++” means <3 uM) | CCOc1cc(-c2ccc(C(=O)NS(=O)(=O)c3cccc(N)n3)c(N3C[C@@H](C)CC3(C)C)n2)cc(C(F)(F)F)c1 [Compound 1569, N-[(6-amino-2-pyridyl)sulfonyl]-6-[3-ethoxy-5-(trifluoromethyl)phenyl]-2-[(4S)-2,2,4-trimethylpyrrolidin-1-yl]pyridine-3-carboxamide] |
| +++ (“+++” means <3 uM) | CC1CN(c2ncc(/C=C/C3CC3)cc2C(=O)NS(=O)(=O)c2cccc(N)n2)C(C)(C)C1 (stereo not shown) [Compound 1571, N-[(6-amino-2-pyridyl)sulfonyl]-5-[(E)-2-cyclopropylvinyl]-2-(2,2,4-trimethylpyrrolidin-1-yl)pyridine-3-carboxamide] |
| +++ (“+++” means <3 uM) | CC(C)Oc1ccc(C(=O)NS(=O)(=O)c2cccc(N)n2)c(N2C[C@@H](C)CC2(C)C)n1 [Compound 1573, N-[(6-amino-2-pyridyl)sulfonyl]-6-isopropoxy-2-[(4S)-2,2,4-trimethylpyrrolidin-1-yl]pyridine-3-carboxamide] |
| ++ (“++” means between 3 uM and 10 uM) | COC[C@H]1C[C@@H]1c1ccc(C(=O)NS(=O)(=O)c2cccc(N)n2)c(N2C[C@@H](C)CC2(C)C)n1 [Compound 1575, N-[(6-amino-2-pyridyl)sulfonyl]-6-[(1S,2S)-2-(methoxymethyl)cyclopropyl]-2-[(4S)-2,2,4-trimethylpyrrolidin-1-yl]pyridine-3-carboxamide] |
| +++ (“+++” means <3 uM) | C[C@@H]1CN(c2nc(C(C)(C)C)c(C3=CC4CCC3C4)cc2C(=O)NS(=O)(=O)c2cccc(N)n2)C(C)(C)C1 (stereo partly drawn) [Compound 1577, N-[(6-amino-2-pyridyl)sulfonyl]-5-(3-bicyclo[2.2.1]hept-2-enyl)-6-tert-butyl-2-[(4S)-2,2,4-trimethylpyrrolidin-1-yl]pyridine-3-carboxamide] |
